Laboratory results taken from ChEMBL document CHEMBL1142543, “Arabinose 5-phosphate analogues as mechanistic probes for Neisseria meningitidis 3-deoxy-D-manno-octulosonate 8-phosphate synthase” (Bioorg Med Chem, 2008).

System: Neisseria meningitidis MC58
Test: Activity at Neisseria meningitidis B MC58 (ATCC BAA355) recombinant 3-deoxy-D-manno-octulosonate 8-phosphate synthase expressed in Escherichia coli BL21 (DE3)

kcat [s⁻¹]	Compound
1.1	O=C[C@@H](O)[C@H](O)[C@@H](O)COP(=O)(O)O
2.7	O=C[C@@H](O)[C@H](O)[C@H](O)COP(=O)(O)O
